In the supplement of paper PMC10307832:

Experiments:
Test in all cases: relative viability (nuclei count vs DMSO), 5 days (fraction); higher = more cells survive
[1] = compound: CC(C)C[C@@H](C(=O)N[C@H](C(=O)OC1CCCC1)c1ccccc1)[C@H](O)C(=O)NO [Tosedostat] + C[C@]1(O)C[C@@H](c2nc(-c3ccc4ccc(-c5ccccc5)nc4c3)c3c(N)nccn32)C1 [Linsitinib] (partner 1 µM)
Outline: (§1)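 Relative viability is defined as nuclei in treated wells over nuclei in vehicle wells. Duplicate plates were run and medians reported. Lung cancer cell lines in 1536-well plates were dosed by pin tool one day after seeding, with one drug or with a fixed anchor-drug dose plus five library-drug doses (not always all listed) in √10 steps, and nuclei were counted after 5 days.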

[2] = compound: CC(C)C[C@@H](C(=O)N[C@H](C(=O)OC1CCCC1)c1ccccc1)[C@H](O)C(=O)NO [Tosedostat] + C[C@@H](Oc1cc(-c2cnn(C3CCNCC3)c2)cnc1N)c1c(Cl)ccc(F)c1Cl [Crizotinib] (partner 1 µM)
Outline: as §1

[3] = compound: CC(C)C[C@@H](C(=O)N[C@H](C(=O)OC1CCCC1)c1ccccc1)[C@H](O)C(=O)NO [Tosedostat] + COc1cc2c(Oc3ccc(NC(=O)C4(C(=O)Nc5ccc(F)cc5)CC4)cc3F)ccnc2cc1OCCCN1CCOCC1 [Foretinib] (partner 0.25 µM)
Outline: as §1

[4] = compound: CC1=NN=C(O1)C2=NN=C(C=C2)N3CCC(CC3)OC4=C(C=CC(=C4)F)Cl + CS(=O)(=O)N1CCN(Cc2cc3nc(-c4cccc5[nH]ncc45)nc(N4CCOCC4)c3s2)CC1 [Pictilisib] (partner 1 µM)
Outline: as §1

Cell Line | relative viability ([1]; first compound 0.02 µM) | relative viability ([1]; first compound 0.06325 µM) | relative viability ([1]; first compound 0.2 µM) | relative viability ([1]; first compound 0.6325 µM) | relative viability ([1]; first compound 2 µM) | relative viability ([2]; first compound 0.02 µM) | relative viability ([2]; first compound 0.06325 µM) | relative viability ([2]; first compound 0.2 µM) | relative viability ([2]; first compound 0.6325 µM) | relative viability ([2]; first compound 2 µM) | relative viability ([3]; first compound 0.02 µM) | relative viability ([3]; first compound 0.06325 µM) | relative viability ([3]; first compound 0.2 µM) | relative viability ([3]; first compound 0.6325 µM) | relative viability ([3]; first compound 2 µM) | relative viability ([4]; first compound 0.253 µM) | relative viability ([4]; first compound 0.8 µM) | relative viability ([4]; first compound 2.53 µM) | relative viability ([4]; first compound 8 µM)
NCI-H1734 | 0.902 | 0.989 | 0.867 | 0.913 | 0.827 | 0.727 | 0.695 | 0.688 | 0.574 | 0.656 | 0.93 | 0.859 | 0.826 | 0.818 | 0.652 | 0.451 | 0.404 | 0.421 | 0.355
NCI-H650 | 0.853 | 0.84 | 0.679 | 0.656 | 0.494 | 0.786 | 0.662 | 0.596 | 0.551 | 0.375 | 1.05 | 1.04 | 0.92 | 0.941 | 0.765 | 0.869 | 0.775 | 0.47 | 0.889
LCLC-103H | 1.29 | 1.08 | 1.06 | 1.18 | 1.36 | 1.09 | 1.03 | 1.06 | 1.13 | 1.02 | 0.787 | 0.797 | 0.878 | 0.797 | 0.777 | 0.556 | 0.479 | 0.567 | 0.473
LCLC-97TM1 | 0.181 |  |  | 0.205 | 0.167 | 0.338 |  |  | 0.288 | 0.221 | 0.878 | 0.926 | 0.833 | 0.771 | 0.773 | 0.234 |  | 0.213 | 0.239
SK-LU-1 | 1.1 | 1.07 | 0.9 | 0.855 | 0.906 | 0.898 | 0.775 | 0.731 | 0.693 | 0.871 | 0.975 | 0.724 | 0.662 | 0.792 | 0.652 | 0.518 | 0.508 | 0.529 | 0.42
NCI-H1563 | 1.25 | 1.16 | 1.26 | 1.29 | 1.4 | 0.877 | 0.998 | 0.893 | 1.07 | 0.917 | 0.961 | 0.997 | 0.958 | 1.12 | 1 | 0.625 | 0.694 | 0.659 | 0.633
HOP-62 | 1.07 | 0.977 | 0.849 | 0.693 | 0.712 | 1.01 | 0.994 | 0.677 | 0.81 | 0.69 | 1.27 | 1.09 | 1.09 | 1.02 | 1 | 0.652 |  | 0.645 | 0.331
NCI-H23 | 0.612 | 0.56 | 0.548 | 0.474 | 0.416 | 0.504 | 0.494 | 0.442 | 0.341 | 0.206 | 1.01 | 0.889 | 0.919 | 0.827 | 0.69 | 0.466 |  | 0.527 | 0.463
